{
  "source": "patent US11118211B2",
  "about": "“Methods for the design of mechanism-based sirtuin activating compounds” (CHAKRABARTI ADVANCED TECHNOLOGY LLC, priority 2015, dated 2021)",
  "key": {"recombinant human SIRT3": {"molecular_target": "T1, recombinant human SIRT3 (Homo sapiens, UniProt Q9NTG7)", "T1 construct": "purchased Enzo Life Sciences AK 557", "T1 sequence (Q9NTG7 1-399)": "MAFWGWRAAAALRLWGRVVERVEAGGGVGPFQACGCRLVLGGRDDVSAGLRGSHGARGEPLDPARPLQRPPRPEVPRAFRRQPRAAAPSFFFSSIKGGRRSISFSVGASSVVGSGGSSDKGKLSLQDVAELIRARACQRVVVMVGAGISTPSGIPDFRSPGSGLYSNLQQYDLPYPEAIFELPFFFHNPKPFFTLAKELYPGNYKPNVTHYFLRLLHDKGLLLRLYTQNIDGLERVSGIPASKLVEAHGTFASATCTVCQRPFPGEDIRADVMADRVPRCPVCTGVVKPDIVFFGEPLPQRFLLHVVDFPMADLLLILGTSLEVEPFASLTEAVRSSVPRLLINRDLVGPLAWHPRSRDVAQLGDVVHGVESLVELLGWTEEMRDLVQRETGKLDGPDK", "assay": "High-throughput fluorimetric initial rate / endpoint assay of SIRT3 deacetylation with fluorolabeled p53 peptide", "assay_type": "biochemical", "experimental": "The specified concentration of the test compound was chosen to be 50 uM. Initial deacylation rates at DHP-1's were measured at varying [NAD+] and [NAM] according to the following methods.\nThe steady state parameters (Km and kcat) and catalytic efficiency (kcat/Km) of deacetylase activity of recombinant human SIRT3 were determined using a fluorimetric assay. The deacetylation activities were measured by using the SIRT3 Fluorimetic Drug Discovery Kit (AK 557, Enzo Life Sciences). This assay system allows detection of a fluorescent signal upon deacetylation of an acetylated substrate peptide, comprising amino acids 317-320 of human p53 (Gln-Pro-Lys-LysAc) for SIRT3, when treated with developer. The intensity of fluorescence was measured on a fluorometric microplate reader (Fluoroskan AscentH FL, Thermo Lab Systems) with excitation set at 355 nm and emission detection set at 460 nm. The initial rate of the NAD^+-dependent deacetylation activity of SIRT3 enzyme was measured at different concentrations of NAD^+. The reactions were carried out at 37° C. in a 50 μl reaction volume containing 50 mM Tris/Cl (pH=8), 137 mM NaCl, and 250 uM fluorolabeled peptide substrate. Reactions carried out in the presence of DHP-1 included 5% DMSO. The raw data were fitted to the Michaelis-Menten equation and defined inhibition models by using GraphPad Prism (GraphPad Software, Inc, CA) to obtain the kinetic constants. […] In assays of allosteric modulators, artifacts reported in the presence of the fluorescent label were later shown to occur due to the hydrophobic fluorophore participating in the modulator's allosteric activation mechanism.\nThis assay was used to measure the potency of modulation of SIRT3 by DHP-1 in a high-throughput endpoint format. All reagents are diluted on ice in the following reaction buffer: 50 mM Tris/Cl, pH 8.0, 137 mM NaCl, 2.7 mM KCl, 1 mM MgCl2, and 1 mg/mL BSA. Thus for each reaction well, 5U of SIRT3 enzyme is added to 500 μM NAD^+, 250 μM fluorolabeled peptide substrate, and DHP-1 at a given concentration (0-100 uM) in a total reaction volume of 50 μL. After an hour incubation at 37° C., the reaction is stopped upon addition of 1× Developer for a final reaction volume of 100 μL. The reaction is incubated at 37° C. for an additional 15 min and then read on the plate reader. Positive controls contained only enzyme, substrate, NAD^+, and DMSO while background controls contained substrate, NAD^+, and DMSO only."}, "[1]": {"assay": "Thermodynamic solubility measurement by HPLC in HDAC buffer / DMSO", "assay_type": "physicochemical", "details": "for thermodynamic solubility (in words): solubility protocol of b230; for solubility at 48 h: 24.5 °C, thermodynamic from solid, ambient (24-25° C.)", "experimental": "DHP-1 in up to 20% DMSO/HDAC was insoluble. In brief, HPLC (Agilent 1100 series) was used to perform the test. Calibration curves were established using concentration range covering the estimated solubility's. The samples were then analyzed by a well-calibrated HPLC method. The linearity was measured by R-values at least >0.99. The estimated detection limit was around 0.002 mg/mL (2 μg/mL) based on acceptable N/S ratio. Over saturated samples were prepared by dosing excess compounds into the solvent mixtures of interest. The samples were equilibrated at ambient (24-25° C.) for 48 hours and then analyzed by the same HPLC method."}, "Human Sirt3 protein [2]": {"molecular_target": "T2, Human Sirt3 protein (Homo sapiens, UniProt Q9NTG7)", "T2 construct": "hexa-histidine (N); host or cells: E. coli Arctic Express (DE3)", "T2 sequence (Q9NTG7 102-399)": "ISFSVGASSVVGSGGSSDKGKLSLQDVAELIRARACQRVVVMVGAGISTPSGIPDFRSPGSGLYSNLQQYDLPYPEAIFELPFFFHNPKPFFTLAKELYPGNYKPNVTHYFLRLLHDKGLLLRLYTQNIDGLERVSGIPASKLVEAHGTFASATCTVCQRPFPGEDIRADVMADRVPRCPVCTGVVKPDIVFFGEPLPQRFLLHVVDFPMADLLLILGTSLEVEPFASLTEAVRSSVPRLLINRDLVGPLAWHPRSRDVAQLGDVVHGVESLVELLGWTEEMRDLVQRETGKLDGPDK", "assay": "Label-free HPLC endpoint assay of Sirt3 deacetylation activity (DHP-1, DHP-2; FdL/p53 peptide)", "assay_type": "biochemical", "details": "for % product formation / % Sirt3 Activity: 50 uM DHP-1 in 5% DMSO; for % Sirt3 Activity: control = 100.0", "experimental": "Reactions for DHP-1 used a similar protocol, but were carried out at a single concentration of modulator and varying concentrations of NAD+ and fluorolabeled peptide at 37° C. in a 50 μl reaction volume containing 50 mM Tris/Cl (pH=8), 137 mM NaCl, and 5% DMSO. [DHP] was 50 uM."}, "Sir2Af2": {"molecular_target": "T3, Sir2Af2 (Archaeoglobus fulgidus, UniProt O30124)", "T3 sequence (O30124 1-253)": "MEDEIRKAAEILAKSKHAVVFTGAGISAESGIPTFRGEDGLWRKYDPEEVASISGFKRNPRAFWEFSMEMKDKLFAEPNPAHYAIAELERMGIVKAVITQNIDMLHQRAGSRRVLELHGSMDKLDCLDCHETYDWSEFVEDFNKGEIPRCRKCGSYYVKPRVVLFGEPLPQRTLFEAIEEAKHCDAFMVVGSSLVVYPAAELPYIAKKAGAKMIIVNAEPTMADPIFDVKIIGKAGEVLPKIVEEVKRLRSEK", "details": "cited from earlier work"}, "Human Sirt3 protein [3]": {"molecular_target": "T2, Human Sirt3 protein", "assay": "Binding analysis by microscale thermophoresis (MST)", "details": "5% DMSO, 25° C.", "experimental": "Human Sirt3 protein was labeled with Alexa647 fluorophore by NHS ester chemistry in 20 mM HEPES, 200 mM NaCl, 0.5 mM TCEP at pH 7.5. A 2:1 molar excess of reactive dye was used over protein, in order to preferentially label one lysine within the protein. Free dye was removed using a size exclusion column and the labeled protein (Sirt3 NT647) was buffer exchanged into 50 mM Tris-HCl pH 8.0, 137 mM NaCl, 2.7 mM KCl, 1 mM MgCl2, 5% DMSO, 0.05% Pluronic F-127. A final concentration of 2 nM Sirt3 NT647 was titrated with varying concentrations of the modulator and thermophoresis was measured (excitation wavelength 650 nm, emission wavelength 670 nm, LED-power 15%, laser-power 80%) using a Monolith NT. 115 Pico (NanoTemper Technologies) at 25° C. in the absence and presence of various concentrations of NAD+, acetylated and de-acetylated peptide (K122-MnSOD peptide). Dissociation constants were determined with GraFit7 (Erithacus Software) by nonlinear fitting using a 1:1 binding model. Each experiment was repeated at least twice."}, "[4]": {"details": "100 uM NAD + 100 uM FdL Peptide"}, "[5]": {"details": "200 uM NAD + 100 uM FdL Peptide"}, "[6]": {"details": "500 uM NAD + 250 uM FdL Peptide"}, "[7]": {"details": "2% DMSO in HDAC buffer, aqueous buffer, 2% DMSO/HDAC"}, "[8]": {"details": "5% DMSO in HDAC buffer, aqueous with cosolvent or surfactant or cyclodextrin, 5% DMSO/HDAC"}},
  "note": "Read-outs that look alike come from different tables or passages of the source.",
  "data": [
    {"smiles": "CCOC(=O)C1=CN(Cc2ccccc2)C=C(C(=O)OCC)C1c1ccccc1", "note": "[DHP-1, N-Benzyl-3,5-dicarbethoxy-4-phenyl-1,4-dihydropyridine]", "values": [
      {"measurement": "Alpha (apparent, best-fit value)", "setting": "recombinant human SIRT3; 50 uM DHP-1, global fit of mixed inhibition model, varying NAD+ and NAM", "value": 1.933},
      {"measurement": "Vmax (apparent, best-fit value)", "setting": "recombinant human SIRT3; 50 uM DHP-1, global fit of mixed inhibition model, varying NAD+ and NAM, 250 uM fluorolabeled peptide", "value": 0.2118},
      {"measurement": "net effect on catalytic turnover (vapp versus v)", "setting": "recombinant human SIRT3; fluorimetric assays", "value": "vapp>v"},
      {"measurement": "thermodynamic solubility (in words)", "setting": "[1]", "value": "thermodynamically insoluble"},
      {"measurement": "Solubility", "setting": "[1]; up to 20% DMSO/HDAC", "value": "insoluble"},
      {"measurement": "SIRT3 activation in label-free assay", "setting": "Human Sirt3 protein [2]; 50 uM DHP-1, conditions of Table 2, threshold vapp/v=1.10", "value": "does not activate SIRT3"},
      {"measurement": "% product formation", "setting": "Human Sirt3 protein [2]; [4]", "value": 5.776, "unit": "%"},
      {"measurement": "% Sirt3 Activity", "setting": "Human Sirt3 protein [2]; [4]", "value": 96.7, "unit": "%"},
      {"measurement": "% product formation", "setting": "Human Sirt3 protein [2]; [5]", "value": 9.463, "unit": "%"},
      {"measurement": "% Sirt3 Activity", "setting": "Human Sirt3 protein [2]; [5]", "value": 92.3, "unit": "%"},
      {"measurement": "% product formation", "setting": "Human Sirt3 protein [2]; [6]", "value": 2.111, "unit": "%"},
      {"measurement": "% Sirt3 Activity", "setting": "Human Sirt3 protein [2]; [6]", "value": 99.5, "unit": "%"}
    ]},
    {"smiles": "NC(=O)c1cccnc1", "note": "[NAM, nicotinamide]", "values": [
      {"measurement": "ΔGbind,NAM", "setting": "Sir2Af2", "value": -4.1, "unit": "kcal/mol"}
    ]},
    {"smiles": "O=C(O)C1=CN(Cc2ccccc2)C=C(C(=O)O)C1c1ccccc1", "note": "[DHP-2, N-Benzyl-3,5-dicarboxy-4-phenyl-1,4-dihydropyridine]", "values": [
      {"measurement": "solubility at 48 h", "setting": "[1]; [7]", "value": 1740, "unit": "µg/mL"},
      {"measurement": "solubility at 48 h", "setting": "[1]; [8]", "value": 2140, "unit": "µg/mL"},
      {"measurement": "solubility at 48 h", "setting": "[1]; 10% DMSO in HDAC buffer, aqueous with cosolvent or surfactant or cyclodextrin, 10% DMSO/HDAC", "value": 2200, "unit": "µg/mL"},
      {"measurement": "solubility at 48 h", "setting": "[1]; aqueous buffer, 100% HDAC buffer", "value": 2300, "unit": "µg/mL"},
      {"measurement": "thermodynamic solubility (in words)", "setting": "[1]", "value": "thermodynamically soluble"},
      {"measurement": "SIRT3 activation in label-free assay", "setting": "Human Sirt3 protein [2]; 3 μM NAD+ and 250 μM peptide substrate, 0-400 μM DHP-2, threshold vapp/v=1.10", "value": "does not activate SIRT3"},
      {"measurement": "rate enhancement versus predicted for Km,NAD+ reduction (x = 0.7, 0.8, 0.9)", "setting": "Human Sirt3 protein [2]; any concentration tested, label-free assay (FIG. 8 vs FIG. 10)", "value": "does not induce a rate enhancement exceeding those predicted"}
    ]},
    {"smiles": "C=CCc1ccc(O)c(-c2ccc(O)c(CC=C)c2)c1", "note": "[Honokiol, 5,3′-Diallyl-2,4′-dihydroxybiphenyl, reference compound]", "values": [
      {"measurement": "solubility at 48 h", "setting": "[1]; [7]", "value": 41, "unit": "µg/mL"},
      {"measurement": "solubility at 48 h", "setting": "[1]; [8]", "value": 120, "unit": "µg/mL"},
      {"measurement": "Kd", "setting": "Human Sirt3 protein [3]; read-out: Kd, binding to SIRT3 apoenzyme", "value": "1010 ± 129", "unit": "nM"},
      {"measurement": "Kd", "setting": "Human Sirt3 protein [3]; read-out: Kd, binding to the enzyme:NAD+ complex", "value": "1670 ± 125", "unit": "nM"}
    ]},
    {"smiles": "NC(=O)c1ccncc1", "note": "[isonicotinamide, reference compound]", "values": [
      {"measurement": "outcome of hit identification", "setting": "recombinant human SIRT3; same sirtuin enzyme and peptide substrate, competitive inhibitor of base exchange", "value": "screened out"}
    ]}
  ]
}
